Assay results from patent US8242118B2, “Arylsulfonamide derivatives for use as CCR3 antagonists in the treatment of inflammatory and immunological disorders” (Axikin Pharmaceuticals Inc., priority 2001, dated 2012).

Legend:
Human CCR3 = target: T1, Human CCR3 (Homo sapiens, UniProt P51677); assay: Calcium mobilization assay, eotaxin-stimulated; assay type: cell-based; conditions: human CCR3-transformed K562 cells, 10 nM eotaxin; compounds of about 40 to 90% purity; read-out: Activity grade Ca2+ (IC50 class)
T1 construct: The cloned CCR3 cDNA was constructed with pcDNA3 vector and transfected into a IC562 cell line; expressed in transfected cells
T1 sequence (P51677 1-355): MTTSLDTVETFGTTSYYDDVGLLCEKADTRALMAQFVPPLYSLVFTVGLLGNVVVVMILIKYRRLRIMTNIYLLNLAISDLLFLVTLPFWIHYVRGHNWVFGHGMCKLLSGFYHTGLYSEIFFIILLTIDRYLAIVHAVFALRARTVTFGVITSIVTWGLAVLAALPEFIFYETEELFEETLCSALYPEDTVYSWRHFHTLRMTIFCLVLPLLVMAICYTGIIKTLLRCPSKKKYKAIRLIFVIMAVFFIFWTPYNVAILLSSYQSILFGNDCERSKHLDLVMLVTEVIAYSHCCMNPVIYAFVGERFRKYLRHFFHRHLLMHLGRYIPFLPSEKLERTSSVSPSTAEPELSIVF
In short: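 K562 cells transfected with human CCR3, pretreated 20–24 h with 5 mM sodium butyrate, loaded with Fluo-3AM. Compound added 10 min before stimulation with 10 nM (final) eotaxin; cytoplasmic calcium read over 60 s by FDSS, IC50 from inhibition curve.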

Compound | IC50 (Human CCR3) [nM] | melting point [°C]
O=[N+]([O-])c1ccc(Sc2cc(Cl)cc(Cl)c2)c(S(=O)(=O)N2CCC(N3CCCCC3)CC2)c1 [Example 2-3] | < 1000 | 191 to 192
Cl.N[C@@H]1CCN(S(=O)(=O)c2cc([N+](=O)[O-])ccc2Sc2cc(Cl)cc(Cl)c2)C1 [Example 2-11] | < 1000 | 270
N[C@H]1CCN(S(=O)(=O)c2cc([N+](=O)[O-])ccc2Sc2cc(Cl)cc(Cl)c2)C1 [Example 2-12] | < 1000 | 263
CC1CCCCN1CCCNS(=O)(=O)c1cc([N+](=O)[O-])ccc1Sc1cc(Cl)cc(Cl)c1 (stereo not drawn) [Example 2-13] | < 1000 | 
O=[N+]([O-])c1ccc(Sc2cc(Cl)cc(Cl)c2)c(S(=O)(=O)N2CCC(N3CCCC3)CC2)c1 [Example 2-22] | < 1000 | 213
CN(C)CCN(C)S(=O)(=O)c1cc([N+](=O)[O-])ccc1Sc1cc(Cl)cc(Cl)c1 [Example 2-23] | < 1000 | 102
O=[N+]([O-])c1ccc(Sc2cc(Cl)cc(Cl)c2)c(S(=O)(=O)NCCN2CCCCC2)c1 [Example 2-24] | < 1000 | 
O=[N+]([O-])c1ccc(Nc2cc(Cl)cc(Cl)c2)c(S(=O)(=O)N2CCNCC2)c1 [Example 3-2] | < 1000 | 
Cc1ccccc1Nc1ccc([N+](=O)[O-])cc1S(=O)(=O)N1CCNCC1 [Example 3-3] | 1000 to 10000 | 
Cc1cccc(Nc2ccc([N+](=O)[O-])cc2S(=O)(=O)N2CCNCC2)c1 [Example 3-4] | 1000 to 10000 | 
Cc1ccc(Nc2ccc([N+](=O)[O-])cc2S(=O)(=O)N2CCNCC2)cc1 [Example 3-5] | 1000 to 10000 | 
O=[N+]([O-])c1ccc(Nc2ccccc2Cl)c(S(=O)(=O)N2CCNCC2)c1 [Example 3-6] | 1000 to 10000 | 
Cc1cc(C)cc(Oc2ccc([N+](=O)[O-])cc2S(=O)(=O)NCCN2CCCCC2)c1 [Example 4-2] | < 1000 | 
Cc1cc(C)cc(Oc2ccc([N+](=O)[O-])cc2S(=O)(=O)NCCN2CCOCC2)c1 [Example 4-3] | < 1000 | 
Cc1cc(C)cc(Oc2ccc([N+](=O)[O-])cc2S(=O)(=O)N2CCN(C)CC2)c1 [Example 4-4] | < 1000 | 131 to 132
CCN1CCN(S(=O)(=O)c2cc([N+](=O)[O-])ccc2Oc2cc(C)cc(C)c2)CC1 [Example 4-5] | < 1000 | 111 to 112
Cc1cc(C)cc(Oc2ccc([N+](=O)[O-])cc2S(=O)(=O)N2CCN(C3CCCCC3)CC2)c1 [Example 4-6] | < 1000 | 190 to 192
Cc1cc(C)cc(Oc2ccc([N+](=O)[O-])cc2S(=O)(=O)N2CCN(c3ccccc3)CC2)c1 [Example 4-7] | > 10000 | 168 to 169
Cc1ccc(N2CCN(S(=O)(=O)c3cc([N+](=O)[O-])ccc3Oc3cc(C)cc(C)c3)CC2)cc1 [Example 4-8] | > 10000 | 168 to 170
CCN1CCC(N(CC)S(=O)(=O)c2cc([N+](=O)[O-])ccc2Oc2cc(C)cc(C)c2)C1 (stereo not drawn) [Example 4-12] | < 1000 | 86 to 88

Compound | IC50 (Human CCR3) [nM] | melting point [°C]
Cc1cc(C)cc(Oc2ccc([N+](=O)[O-])cc2S(=O)(=O)N2CC[C@@H](N(C)C)C2)c1 [Example 4-13] | < 1000 | 115 to 116
Cc1cc(C)cc(Oc2ccc([N+](=O)[O-])cc2S(=O)(=O)N(C)CCN(C)C)c1 [Example 4-14] | < 1000 | 75 to 77
Cc1cc(C)cc(Oc2ccc([N+](=O)[O-])cc2S(=O)(=O)N2CCN(C(C)C)CC2)c1 [Example 4-15] | < 1000 | 129 to 131
CCC(C)N1CCN(S(=O)(=O)c2cc([N+](=O)[O-])ccc2Oc2cc(C)cc(C)c2)CC1 (stereo not drawn) [Example 4-16] | < 1000 | 134 to 135
CCCC(C)N1CCN(S(=O)(=O)c2cc([N+](=O)[O-])ccc2Oc2cc(C)cc(C)c2)CC1 (stereo not drawn) [Example 4-17] | < 1000 | 93 to 95
CCC(CC)N1CCN(S(=O)(=O)c2cc([N+](=O)[O-])ccc2Oc2cc(C)cc(C)c2)CC1 [Example 4-18] | 1000 to 10000 | 131 to 132
Cc1cc(C)cc(Oc2ccc([N+](=O)[O-])cc2S(=O)(=O)N2CCN(C3CCCC3)CC2)c1 [Example 4-19] | < 1000 | 169 to 171
CN(C)CCN(C)S(=O)(=O)c1cc([N+](=O)[O-])ccc1Oc1cc(Cl)cc(Cl)c1 [Example 4-20] | < 1000 | 105 to 107
CCN(CC)C1CCN(S(=O)(=O)c2cc([N+](=O)[O-])ccc2Oc2cc(Cl)cc(Cl)c2)C1 (stereo not drawn) [Example 4-21] | < 1000 | 120 to 121
O=[N+]([O-])c1ccc(Oc2cc(Cl)cc(Cl)c2)c(S(=O)(=O)N2CCC[C@H]2CN2CCCC2)c1 [Example 4-22] | < 1000 | 200 to 202
CN1CCC(N(C)S(=O)(=O)c2cc([N+](=O)[O-])ccc2Oc2cc(Cl)cc(Cl)c2)C1 (stereo not drawn) [Example 4-23] | < 1000 | 
Cc1cc(C)cc(Oc2ccc([N+](=O)[O-])cc2S(=O)(=O)N2CCC(N(C)C)CC2)c1.Cl [Example 4-24] | < 1000 | 262 to 264
Cc1cc(C)cc(Oc2ccc([N+](=O)[O-])cc2S(=O)(=O)N2CCN(CC3CCCO3)CC2)c1 (stereo not drawn) [Example 4-26] | < 1000 | 178 to 179
O=[N+]([O-])c1ccc(Oc2cc(Cl)cc(Cl)c2)c(S(=O)(=O)N2CCN(CC3CCCO3)CC2)c1 (stereo not drawn) [Example 4-27] | < 1000 | 182 to 183
O=[N+]([O-])c1ccc(Oc2cc(Cl)cc(Cl)c2)c(S(=O)(=O)N2CCC(N3CCCCC3)CC2)c1 [Example 4-29] | < 1000 | 173 to 174
Cc1cc(C)cc(Oc2ccc([N+](=O)[O-])cc2S(=O)(=O)N2CCN(CCC(F)(F)F)CC2)c1 [Example 4-33] | < 1000 | 
O=[N+]([O-])c1ccc(Oc2cc(Cl)cc(Cl)c2)c(S(=O)(=O)N2CCN(CCC(F)(F)F)CC2)c1 [Example 4-34] | < 1000 | 166 to 167
COCCCN1CCN(S(=O)(=O)c2cc([N+](=O)[O-])ccc2Oc2cc(Cl)cc(Cl)c2)CC1 [Example 4-36] | < 1000 | 145
O=[N+]([O-])c1ccc(Oc2cc(Cl)cc(Cl)c2)c(S(=O)(=O)N2CCC(N3CCCC3)C2)c1 (stereo not drawn) [Example 4-38] | < 1000 | 
Cc1cc(C)cc(Oc2ccc(N)cc2S(=O)(=O)N2CCNCC2)c1.O=C(O)C(F)(F)F [Example 5-3] | > 10000 | 133 to 135

Compound | IC50 (Human CCR3) [nM] | melting point [°C]
CCN1CCN(S(=O)(=O)c2cc(Cl)ccc2Oc2cc(C)cc(C)c2)CC1 [Example 5-4] | < 1000 | 120 to 122
CCN1CCN(S(=O)(=O)c2cc(I)ccc2Oc2cc(C)cc(C)c2)CC1 [Example 5-5] | < 1000 | 133 to 134
Cc1cc(C)cc(Oc2ccc(I)cc2S(=O)(=O)N2CCNCC2)c1.Cl [Example 5-6] | < 1000 | 241 to 243
Cc1cc(C)cc(Oc2cc(C)c(N)cc2S(=O)(=O)N2CCNCC2)c1.Cl.Cl [Example 5-7] | > 10000 | 183
Cc1cc(C)cc(Oc2ccc(F)cc2S(=O)(=O)N2CCNCC2)c1 [Example 6-3] | < 1000 | 116 to 118
CC(=O)Nc1ccc(Oc2cc(C)cc(C)c2)c(S(=O)(=O)N2CCNCC2)c1 [Example 7-2] | > 10000 | 
Cc1cc(C)cc(Oc2ccc(NC(=O)C(C)(C)C)cc2S(=O)(=O)N2CCNCC2)c1 [Example 7-3] | > 10000 | 
Cc1cc(C)cc(Oc2ccc(NC(=O)CC(C)C)cc2S(=O)(=O)N2CCNCC2)c1 [Example 7-4] | > 10000 | 
Cc1cc(C)cc(Oc2ccc(NC(=O)c3ccccc3)cc2S(=O)(=O)N2CCNCC2)c1 [Example 7-5] | > 10000 | 
Cc1ccc(C(=O)Nc2ccc(Oc3cc(C)cc(C)c3)c(S(=O)(=O)N3CCNCC3)c2)cc1 [Example 7-6] | > 10000 | 
Cc1cc(C)cc(Oc2ccc(NC(=O)c3cccc4ccccc34)cc2S(=O)(=O)N2CCNCC2)c1 [Example 7-7] | 1000 to 10000 | 
Cc1cc(C)cc(Oc2ccc(NC(=O)CCc3ccccc3)cc2S(=O)(=O)N2CCNCC2)c1 [Example 7-8] | > 10000 | 
Cc1cc(C)cc(Oc2ccc(NC(=O)c3cccs3)cc2S(=O)(=O)N2CCNCC2)c1 [Example 7-9] | > 10000 | 
Cc1cc(C)cc(Oc2ccc(S(=O)(=O)N(C)C)cc2S(=O)(=O)N2CCNCC2)c1.Cl [Example 10-2] | < 1000 | 242 to 247
N#Cc1ccc(Oc2cc(Cl)cc(Cl)c2)c(S(=O)(=O)N2CCCC3CN(Cc4ccccc4)CC32)c1 (stereo not drawn) [Example 13-2] | 1000 to 10000 | 90 to 93
N#Cc1ccc(Oc2cc(Cl)cc(Cl)c2)c(S(=O)(=O)N2C[C@H]3C[C@@H]2CN3)c1 [Example 13-4] | < 1000 | 311 to 312
N#Cc1ccc(Oc2cc(Cl)cc(Cl)c2)c(S(=O)(=O)N2C[C@@H]3CCCN[C@@H]3C2)c1 [Example 13-5] | < 1000 | 163 to 165
COCCCN1CCN(S(=O)(=O)c2cc(C#N)ccc2Oc2cc(Cl)cc(Cl)c2)CC1 [Example 13-7] | < 1000 | 240
